Test results reported in patent publication US9422254B2, “Methoxyacrylate-based fungicide and methods for preparing and using the same” (priority 2008, dated 2016).

Assays:
Sphaerotheca uliginea = assay: Fungicidal activity on potted cucumber, powdery mildew; assay type: in vivo
Description: 1. Fungicidal Activity Assay on Potted Plants at Room Temperature
Take cucumber downy mildew and powdery mildew as examples, the assay were carried out as follows:
2) Sphaerotheca uliginea: Pathogen of Cucumber Powdery Mildew
A cucumber seedling having uniform growth status and in the true leaf stage was collected, sprayed with the compound of Formula (I), and dried in the shade for 24 hrs. Fresh spore was collected from cucumber leaves infected by Sphaerotheca uliginea, filtered with a double-layer gauze, and prepared into a suspension (1.0×10^5 cells/mL). The suspension was sprayed to the dried cucumber seedling. Subsequently, the inoculated seedling was dried naturally and cultured under light in a thermostatic chamber (21-23° C.). 7-8 days later, compared with the blank control, the disease of the cucumber seedlings was graded. Based on the resultant disease index, the efficacy was calculated.
The grading standard follows “Guidelines on efficacy evaluation of pesticides”, and the efficacy is calculated on the basis of the disease index.

[1] = tested on: Colletotrichum lagenarium; assay: microbe, parasite or virus in culture; assay type: cell-based; settings: Colletotrichum orbiculare, read-out: Inhibition rate (%)
Helminthosporum maydis = assay: organism not typed; assay type: cell-based
Cercospora arachidicola = assay: microbe, parasite or virus in culture; assay type: cell-based; settings: Mycosphaerella arachidis, read-out: Inhibition rate (%)
guinea pig skin = assay: Skin sensitization test; assay type: in vivo
Description: (§1) The toxicological indexes of the compound were tested following the standard GB15670-1995 “Toxicological test methods of pesticides for registration” by Tongji Medical College, Huazhong University of Science and Technology.

mice spermatogonial = assay: Chromosome aberration test of mice spermatogonial; assay type: in vivo
Description: as §1

[2] = tested on: Cucumber gray mold (Q503001); assay: In vivo micro-screening assay
Description: In Vivo Micro-Screening Assay
(§2) To further study the fungicidal spectrum of the compound of Formula (I), indoor in vivo micro-screening assay were carried out on cucumber gray mold, cucumber scab, cucumber sclerotinia rot, cucumber brown spot, pepper phytophthora blight, and rice sheath blight.
(§3) Medicament to be tested and medicament of control groups were prepared as needed in a sunny morning. Cucumber gray mold, cucumber scab, cucumber brown spot, cucumber sclerotinia rot, and rice sheath blight were medicated by spray, and after air dry, pathogens of cucumber scab and of cucumber brown spot were inoculated through spraying spore suspension respectively, pathogens of cucumber gray mold, of cucumber sclerotinia rot, and of rice sheath blight were inoculated through lawn foliage. Pepper phytophthora blight was medicated and inoculated by root-irrigation. Subsequently, all seedlings were cultured in wet environment.
(§4) After the disease of control groups were serious, spot area, disease index, and the diseased seedling rate were investigated to calculate the efficacy. Cucumber scab, cucumber brown spot, and pepper phytophthora blight were investigated by grading method. The spot extension area of cucumber gray mold and of rice sheath blight was investigated. The diseased seedling rate of cucumber sclerotinia rot was investigated. Disease index=Σ(amount of infected diseased leaves in a grade×relative value of the grade)×100/(total amount of leaves×9); Diseased seedling rate (%)=(total amount of seedlings−amount of diseased seedlings)/total amount of seedlings×100% Prevention and treatment effect (%)=(disease of control group−disease of experiment group)/disease of control group×100%

[3] = tested on: Cucumber scab (strain HX); assay: In vivo micro-screening assay
Description: In Vivo Micro-Screening Assay
as §2
Cucumber scab strain: HX; cucumber brown spot strain: SDHGHB060509; cucumber sclerotinia rot strain: HGJH; pepper phytophthora blight strain: NSGP; and rice sheath blight strain: WK-1.
as §3, §4

In the case of `CO/C=C(/C(=O)OC)c1ccccc1CSc1nc2cc(OC)ccc2s1` [Compound of Formula (I), (E)-methyl 3-methoxy-2-(2-((5-methoxy-benzothiazol-2-ylthio)methyl)phenyl)acrylate], the “Efficacy (%)” value (Sphaerotheca uliginea; 3.125 mg/L, secondary screening) is reported as 85.24%, the “Efficacy (%)” value (Sphaerotheca uliginea; 6.25 mg/L, secondary screening) is reported as 97.22% and the “Efficacy (%)” value (Sphaerotheca uliginea; 12.5 mg/L, Table 1) is reported as 97.22%. For the same compound, the “Efficacy (%)” value (Sphaerotheca uliginea; 12.5 mg/L, secondary screening) was 98.50%, the “Efficacy (%)” value (Sphaerotheca uliginea; 25 mg/L, Table 1) was 100% and the “Efficacy (%)” value (Sphaerotheca uliginea; 25 mg/L, secondary screening) was 100%. For the same compound, the “Efficacy (%)” value (Sphaerotheca uliginea; 50 mg/L, Table 1) was 100%, the “Efficacy (%)” value (Sphaerotheca uliginea; 50 mg/L, secondary screening) was 100% and the “Efficacy (%)” value (Sphaerotheca uliginea; 100 mg/L, Table 1) was 100%. For the same compound, the “Efficacy (%)” value (Sphaerotheca uliginea; 200 mg/L, Table 1) was 100%, the “preventive effect” value (Sphaerotheca uliginea; powdery mildew) was “good preventive effect” and the EC50 (Sphaerotheca uliginea; secondary screening) was 0.96 µg/mL. It also gave an EC90 (Sphaerotheca uliginea; secondary screening) of 3.87 µg/mL, an inhibition at 0.3 µg/mL ([1]; 0.3 mg/L) of 42% and an inhibition at 3 µg/mL ([1]; 3 mg/L) of 44.2%. The inhibition at 30 µg/mL ([1]; 30 mg/L) was 50.7%, the “in vitro effect” value (Helminthosporum maydis) was “particularly effective” and the inhibition at 0.3 µg/mL (Helminthosporum maydis; 0.3 mg/L, read-out: Inhibition rate (%)) was 86.1%. For the same compound, the inhibition at 3 µg/mL (Helminthosporum maydis; 3 mg/L, read-out: Inhibition rate (%)) was 100%, the inhibition at 30 µg/mL (Helminthosporum maydis; 30 mg/L, read-out: Inhibition rate (%)) was 100% and the inhibition at 0.3 µg/mL (Cercospora arachidicola; 0.3 mg/L) was 30.9%. For the same compound, the inhibition at 3 µg/mL (Cercospora arachidicola; 3 mg/L) was 35.7%, the inhibition at 30 µg/mL (Cercospora arachidicola; 30 mg/L) was 40.5% and the Skin sensitization (guinea pig skin) was “Weak allergen (grade I) on guinea”. For the same compound, the “Chromosome aberration test of mice spermatogonial” value (mice spermatogonial) was “Negative”, the “Efficacy (%)” value ([2]; 100 mg/L) was 93.69% and the “Spot area (mm^2)” value ([2]; 100 mg/L) was 7.78 mm^2. For the same compound, the “Efficacy (%)” value ([2]; 500 mg/L) was 97.71%, the “Spot area (mm^2)” value ([2]; 500 mg/L) was 2.82 mm^2 and the “prevention and treatment effect” value [3] was “good prevention and treatment effect”. For the same compound, the Disease index ([3]; 100 mg/L) was 0, the “Efficacy (%)” value ([3]; 100 mg/L) was 100.00% and the Disease index ([3]; 500 mg/L) was 0. The “Efficacy (%)” value ([3]; 500 mg/L) was 100.00%.
